Laboratory results published in ChEMBL document CHEMBL1201862, “PubChem BioAssay data set” (2004).
The source made the active and inactive calls.

Assays:
P388/ADR = test: cells; type: functional; conditions: Mus musculus
SN12K1 = test: cells; type: functional; conditions: Homo sapiens
P388 = test: cells; type: functional; conditions: Mus musculus
BJ [1] = test: cytotoxicity toward BJ-TERT fibroblasts, dose response, cell-based, RAS-independent, luminescence (AID 1933); type: functional; conditions: Homo sapiens
BJ [2] = test: cells; type: functional, cell-based; conditions: Homo sapiens
BJ [3] = test: cytotoxicity toward BJ-TERT-LT-ST fibroblasts, dose response, cell-based, RAS-independent, luminescence (AID 1935); type: functional; conditions: Homo sapiens;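 also: BJ fibroblasts immortalized with TERT plus LT and ST oncogenes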
[4] = cytotoxicity toward DRD oncogenic fibroblasts, dose response, cell-based, non-viral oncogenic, luminescence (AID 1934); type: functional; conditions: Homo sapiens
[5] = cytotoxicity in HEK-293T cells, dose response, cytotoxicity control for TCR NF-kB inhibitor project, luminescence, T-cell screen hits (AID 489026); type: functional, cell-based;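 also: cells exposed to compound about 14 hours before the viability readout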
Cytochrome P450 2C9 = Cytochrome P450 2C9 (Homo sapiens, UniProt P11712)
[6] = inhibitors of PGC1a acetylation in cells, dose response, cell-based, cherry-picked samples (AID 720514); type: functional;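 also: potency may reflect raised or lowered acetylation signal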
Cytochrome P450 2C19 = Cytochrome P450 2C19 (Homo sapiens, UniProt P33261); test: Cytochrome panel assay with activity outcomes. Panel member name: p450-cyp2c19 Compounds with AC50 equal or less than 10 uM are considered active; type: functional
Cytochrome P450 2D6 = Cytochrome P450 2D6 (Homo sapiens, UniProt P10635);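 also: CYP2D6 member of a cytochrome P450 panel assay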
Cytochrome P450 3A4 = Cytochrome P450 3A4 (Homo sapiens, UniProt P08684);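 also: CYP3A4 tested as one member of a cytochrome P450 panel screen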
Cytochrome P450 1A2 = target: T1, Cytochrome P450 1A2 (Homo sapiens, UniProt P05177);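 also: PubChem cytochrome P450 panel assay, CYP1A2 panel member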
T1 sequence (P05177 whole entry): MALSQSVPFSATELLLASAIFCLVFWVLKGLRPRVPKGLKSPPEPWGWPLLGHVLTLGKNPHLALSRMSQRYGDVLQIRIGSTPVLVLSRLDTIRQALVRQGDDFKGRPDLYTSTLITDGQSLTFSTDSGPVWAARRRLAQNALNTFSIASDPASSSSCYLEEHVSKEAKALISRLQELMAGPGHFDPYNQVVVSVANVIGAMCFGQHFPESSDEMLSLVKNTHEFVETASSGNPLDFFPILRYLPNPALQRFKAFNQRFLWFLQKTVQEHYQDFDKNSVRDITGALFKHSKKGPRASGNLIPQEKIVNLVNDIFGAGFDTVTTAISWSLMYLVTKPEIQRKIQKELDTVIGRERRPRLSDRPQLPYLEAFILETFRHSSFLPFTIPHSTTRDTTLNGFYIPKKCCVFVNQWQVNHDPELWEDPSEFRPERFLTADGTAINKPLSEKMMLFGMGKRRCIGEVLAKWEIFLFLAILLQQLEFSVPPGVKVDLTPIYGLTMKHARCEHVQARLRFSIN

[7] = target: T2, High affinity choline transporter 1 (Homo sapiens, UniProt Q9GZV3); test: CHT inhibitors, dose response, cell-based, 5-point CRC, membrane potential dye (AID 504840); type: functional
T2 sequence (Q9GZV3 whole entry): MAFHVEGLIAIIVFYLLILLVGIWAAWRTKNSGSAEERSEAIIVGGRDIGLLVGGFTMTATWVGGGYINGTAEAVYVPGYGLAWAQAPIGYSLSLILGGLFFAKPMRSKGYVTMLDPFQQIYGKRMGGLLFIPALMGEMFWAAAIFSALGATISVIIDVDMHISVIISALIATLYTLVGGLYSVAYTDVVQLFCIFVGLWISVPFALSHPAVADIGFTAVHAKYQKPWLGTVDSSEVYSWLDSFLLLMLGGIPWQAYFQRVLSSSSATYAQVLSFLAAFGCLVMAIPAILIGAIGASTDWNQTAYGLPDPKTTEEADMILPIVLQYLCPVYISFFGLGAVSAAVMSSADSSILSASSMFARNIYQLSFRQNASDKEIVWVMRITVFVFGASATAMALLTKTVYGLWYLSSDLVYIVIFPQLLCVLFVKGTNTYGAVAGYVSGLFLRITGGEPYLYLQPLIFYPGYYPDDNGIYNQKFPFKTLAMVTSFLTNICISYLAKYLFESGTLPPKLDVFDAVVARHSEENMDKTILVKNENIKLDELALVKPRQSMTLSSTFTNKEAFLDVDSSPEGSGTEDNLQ

[8] = target: T3, Calpain-2 catalytic subunit (Sus scrofa, UniProt P43367); test: pig calpain II inhibitor potency, dose response, biochemical, fluorogenic peptide substrate (AID 1420); type: functional
T3 sequence (P43367 whole entry): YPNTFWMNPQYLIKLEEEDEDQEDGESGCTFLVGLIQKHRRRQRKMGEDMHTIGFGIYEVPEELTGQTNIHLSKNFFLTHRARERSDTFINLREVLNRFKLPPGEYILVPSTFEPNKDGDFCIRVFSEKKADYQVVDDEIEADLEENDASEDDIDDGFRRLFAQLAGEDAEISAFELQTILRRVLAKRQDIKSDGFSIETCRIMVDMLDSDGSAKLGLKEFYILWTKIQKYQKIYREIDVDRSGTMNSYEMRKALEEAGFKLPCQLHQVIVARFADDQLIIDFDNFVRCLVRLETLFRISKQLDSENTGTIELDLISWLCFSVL

Large T antigen = Large T antigen (Simian virus 40, UniProt P03070); type: functional, Betapolyomavirus macacae;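 also: Confirmatory-stage PubChem screen for compounds that inhibit SV40 T antigen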
[9] = inhibitors of HIV Env-driven cell fusion, dose response, cherry-pick (AID 652057); type: functional, cell-based
[10] = ZM109 Env clade C HIV-1 fusion inhibitors, dose response, HeLa effector, CEM target cells, luciferase, cherry-pick (AID 652058); type: functional, cell-based
[11] = inhibitors of clade B AD8 Env fusion, dose response, cell-based, cherry-pick (AID 652062); type: functional;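 also: luciferase signal from cell-cell fusion driven by HIV-1 clade B AD8 Env; potency is for inhibitors of fusion seen as a drop in luminescence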

Chain of Cytochrome P450 2C19 (P33261 whole entry): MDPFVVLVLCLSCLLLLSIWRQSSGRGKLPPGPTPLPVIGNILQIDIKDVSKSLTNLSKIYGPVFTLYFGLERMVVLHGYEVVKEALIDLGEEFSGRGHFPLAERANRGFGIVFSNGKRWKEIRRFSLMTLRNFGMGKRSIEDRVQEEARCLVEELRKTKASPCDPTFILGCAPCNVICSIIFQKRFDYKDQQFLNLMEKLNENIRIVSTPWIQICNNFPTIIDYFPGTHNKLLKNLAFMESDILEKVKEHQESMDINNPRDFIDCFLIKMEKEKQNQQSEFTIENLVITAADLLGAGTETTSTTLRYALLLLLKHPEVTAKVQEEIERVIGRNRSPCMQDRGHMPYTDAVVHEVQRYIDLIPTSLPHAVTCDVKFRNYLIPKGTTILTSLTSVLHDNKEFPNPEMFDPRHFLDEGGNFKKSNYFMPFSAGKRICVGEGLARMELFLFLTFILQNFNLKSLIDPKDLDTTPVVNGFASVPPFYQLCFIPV
Chain of Cytochrome P450 2C9 (P11712 whole entry): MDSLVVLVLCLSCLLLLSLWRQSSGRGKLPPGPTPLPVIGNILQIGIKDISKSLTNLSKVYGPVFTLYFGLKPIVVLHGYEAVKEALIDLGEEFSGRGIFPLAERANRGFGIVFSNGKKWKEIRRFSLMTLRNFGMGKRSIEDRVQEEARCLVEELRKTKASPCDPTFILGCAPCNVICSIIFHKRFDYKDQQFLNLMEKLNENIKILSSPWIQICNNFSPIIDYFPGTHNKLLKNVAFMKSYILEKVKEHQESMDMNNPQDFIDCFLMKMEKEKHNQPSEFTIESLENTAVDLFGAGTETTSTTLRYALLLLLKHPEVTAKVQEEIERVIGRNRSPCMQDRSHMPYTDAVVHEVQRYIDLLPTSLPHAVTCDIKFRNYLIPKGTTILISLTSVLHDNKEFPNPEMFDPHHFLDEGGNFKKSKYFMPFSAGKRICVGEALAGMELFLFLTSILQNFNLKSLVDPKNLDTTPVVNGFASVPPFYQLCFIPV
Chain of Cytochrome P450 3A4 (P08684 whole entry): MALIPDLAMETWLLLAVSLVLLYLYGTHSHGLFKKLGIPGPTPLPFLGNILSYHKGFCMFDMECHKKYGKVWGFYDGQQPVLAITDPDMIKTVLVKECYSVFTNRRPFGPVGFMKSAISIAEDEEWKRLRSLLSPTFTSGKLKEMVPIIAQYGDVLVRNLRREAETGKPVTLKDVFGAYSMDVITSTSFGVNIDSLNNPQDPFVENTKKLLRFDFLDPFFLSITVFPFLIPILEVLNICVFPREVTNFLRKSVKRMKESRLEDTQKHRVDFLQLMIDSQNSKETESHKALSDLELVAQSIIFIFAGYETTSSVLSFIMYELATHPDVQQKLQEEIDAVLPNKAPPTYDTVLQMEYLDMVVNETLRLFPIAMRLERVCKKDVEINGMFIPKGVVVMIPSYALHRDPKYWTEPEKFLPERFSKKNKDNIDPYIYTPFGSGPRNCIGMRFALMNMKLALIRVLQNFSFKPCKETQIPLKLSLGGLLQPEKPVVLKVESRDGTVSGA
Chain of Large T antigen (P03070 whole entry, the tested form may be a part): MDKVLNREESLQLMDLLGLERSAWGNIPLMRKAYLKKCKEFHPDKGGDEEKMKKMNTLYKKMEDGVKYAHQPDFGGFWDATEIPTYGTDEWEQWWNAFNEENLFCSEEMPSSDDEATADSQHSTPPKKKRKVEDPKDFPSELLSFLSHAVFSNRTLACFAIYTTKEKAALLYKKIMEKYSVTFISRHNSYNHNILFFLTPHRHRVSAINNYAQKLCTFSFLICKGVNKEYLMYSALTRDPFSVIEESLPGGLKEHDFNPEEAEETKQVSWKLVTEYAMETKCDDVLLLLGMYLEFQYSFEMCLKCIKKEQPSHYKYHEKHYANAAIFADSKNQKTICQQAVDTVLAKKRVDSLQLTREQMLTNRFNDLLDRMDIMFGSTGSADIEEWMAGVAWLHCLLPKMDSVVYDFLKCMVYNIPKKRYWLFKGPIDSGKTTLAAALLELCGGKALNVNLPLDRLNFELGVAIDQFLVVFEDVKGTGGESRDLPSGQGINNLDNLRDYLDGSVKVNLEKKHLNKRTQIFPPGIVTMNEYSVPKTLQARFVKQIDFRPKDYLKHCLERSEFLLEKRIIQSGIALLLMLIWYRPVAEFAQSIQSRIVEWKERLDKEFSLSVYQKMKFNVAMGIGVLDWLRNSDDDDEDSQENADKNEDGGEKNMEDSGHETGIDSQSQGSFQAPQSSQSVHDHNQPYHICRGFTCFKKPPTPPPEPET
Chain of Cytochrome P450 2D6 (P10635 whole entry): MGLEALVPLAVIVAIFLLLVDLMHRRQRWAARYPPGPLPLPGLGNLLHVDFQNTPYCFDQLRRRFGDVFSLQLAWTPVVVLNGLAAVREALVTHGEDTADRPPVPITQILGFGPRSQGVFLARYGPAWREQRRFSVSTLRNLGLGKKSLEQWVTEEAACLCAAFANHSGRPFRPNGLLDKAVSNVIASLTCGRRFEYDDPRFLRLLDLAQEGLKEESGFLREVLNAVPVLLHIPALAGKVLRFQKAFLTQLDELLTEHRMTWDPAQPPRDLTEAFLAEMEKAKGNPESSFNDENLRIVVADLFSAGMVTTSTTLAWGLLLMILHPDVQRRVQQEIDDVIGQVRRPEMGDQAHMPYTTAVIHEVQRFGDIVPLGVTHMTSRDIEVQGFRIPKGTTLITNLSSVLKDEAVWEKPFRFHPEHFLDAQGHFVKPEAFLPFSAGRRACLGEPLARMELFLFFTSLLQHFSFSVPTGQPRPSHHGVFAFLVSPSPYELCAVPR

O=NN(CCF)C(=O)NC1CCSCC1
GI50 (P388/ADR): > 100 µM (inactive) | GI50 (SN12K1): > 100 µM (inactive) | GI50 (P388): > 100 µM (inactive)

Cc1ccc(C(=O)c2cc([N+](=O)[O-])ccc2N2CCOCC2)cc1C
EC50 (BJ [1]): 3.06 µM (active) | EC50 (BJ [2]): 73.8 µM (inconclusive) | EC50 (BJ [3]): 1.75 µM (active) | EC50 [4]: 1.6 µM (inconclusive) | IC50 [5]: > 80 µM (inactive)

CSc1ccccc1N1CCN(C(=O)Nc2ccc3c(c2)NC(=O)CO3)CC1
AC50 (Cytochrome P450 2C9): inconclusive

Cc1ccc(C2CC2c2nnc(S)n2-c2ccc(Cl)cc2)cc1 (centres undefined)
AC50 [6]: 37.2 µM (active)

C[C@@H](COc1ccc(/C=C\c2ccccc2)cc1)[N+](C)(C)C
AC50 (Cytochrome P450 2C19): inconclusive | AC50 (Cytochrome P450 2D6): 3.16 µM (inconclusive) | AC50 (Cytochrome P450 3A4): 10 µM (inconclusive) | AC50 (Cytochrome P450 2C9): inconclusive

COCCNC(=O)c1cc(-c2cccc(OC)c2)on1
AC50 (Cytochrome P450 2C19; read-out: AC50): 28.2 µM (inconclusive) | AC50 (Cytochrome P450 2C9): inconclusive

CCOc1cc(C#N)c(NC(=O)c2cccnc2)cc1OCC
IC50 [5]: > 80 µM (inactive) | AC50 (Cytochrome P450 2C9): inconclusive

COc1ccc(C2=NOC(C(=O)NCc3ccco3)C2)cc1OC (centres undefined)
AC50 (Cytochrome P450 2C19): inconclusive | AC50 (Cytochrome P450 1A2): 39.8 µM (inconclusive) | AC50 (Cytochrome P450 2C9): inconclusive

O=C(NNC(=S)Nc1ccccc1)c1cc(Br)ccc1Cl
IC50 [7]: 12.6 µM (active)

CCc1ccccc1NC(=O)c1nnn(CC(=O)Nc2ccccc2C)c1N
AC50 (Cytochrome P450 3A4): 25.1 µM (inconclusive) | AC50 (Cytochrome P450 2C9): inconclusive

O=C1C2CCCCC2C(=O)N1c1ccc(NC2CCN(Cc3ccccc3)CC2)c([N+](=O)[O-])c1 (centres undefined)
IC50 [8]: > 50 µM (not active)

O=C(O)/C(=C\c1ccccc1OC(F)F)Sc1nnc(-c2ccc(F)cc2)o1
IC50 [7]: 19.1 µM (active)

Cc1ccc2c(c1)N(CCC(=O)N1CCC3(CC1)OCCO3)C(=O)C(C)O2 (centres undefined)
AC50 (Cytochrome P450 1A2): 0.00631 µM (inconclusive) | AC50 (Cytochrome P450 2C9): inconclusive

COc1cccc(NC(S)=Nc2ccc(O)cc2)c1
IC50 (Large T antigen): 5.64 µM (active)

COc1nc(O)c(N)c(NC2OC(CO)C(O)C(O)C2O)n1 (centres undefined)
GI50 (P388/ADR): 38.5 µM (inactive) | GI50 (SN12K1): > 100 µM (inactive) | GI50 (P388): 13.3 µM (inactive)

CCCCSCC(NC(=O)/C=C/c1c(C)[nH]c(=O)[nH]c1=O)C(=O)OC (centres undefined)
GI50 (P388/ADR): 141 µM (inactive) | GI50 (SN12K1): 17.6 µM (inactive) | GI50 (P388): 55.2 µM (inactive)

O=C(O)C1Cc2c([nH]c3ccccc23)C=N1 (centres undefined)
GI50 (P388/ADR): > 100 µM (inactive) | GI50 (P388): > 100 µM (inactive)

COc1cccc2c1C(=O)c1c(O)c3c(c(O)c1C2=O)C[C@@](O)(C(=O)CO)C[C@@H]3OC1CC(N)CC(C)O1 (some centres undefined)
GI50 (P388/ADR): 0.367 µM (active) | GI50 (SN12K1): 0.02 µM (active) | GI50 (P388): 0.0349 µM (active)

CCOc1cc(/C=N/Nc2ccc(C(=O)O)cc2)ccc1OC(=O)c1ccccc1C
IC50 [8]: 5.07 µM (active)

CC1(C)CC23C4COC(=O)C2CCC1C3CC4=O (centres undefined)
GI50 (P388/ADR): 1.5 µM (inactive) | GI50 (SN12K1): 14.4 µM (inactive) | GI50 (P388): 2.9 µM (inactive)

COc1cc(/C=C/C(=O)Oc2ccc(NC(C)=O)cc2)ccc1C(=O)OCc1ccccc1
GI50 (P388/ADR): 0.69 µM (active) | GI50 (SN12K1): 36.5 µM (inactive) | GI50 (P388): 2.28 µM (inactive)

O=Cc1c(Br)[nH]c2ccccc12
GI50 (P388/ADR): 68.9 µM (inactive) | GI50 (SN12K1): > 100 µM (inactive) | GI50 (P388): > 55.5 µM (inactive)

O=C(C[C@H]1C[C@@H]2c3cc(NS(=O)(=O)c4ccc(F)cc4)ccc3O[C@@H]2[C@H](CO)O1)NCCc1ccccc1
AC50 [9]: 666 nM (active) | AC50 [10]: 1.2 µM (active) | AC50 [11]: 8.44 µM (active)

COc1ccc(NC(=O)Nc2ccc3c(c2)CC(=O)N([C@H](C)CO)C[C@H](C)[C@H](CN(C)S(=O)(=O)c2ccccc2)O3)cc1
AC50 [9]: < 260 nM (active) | AC50 [10]: < 0.26 µM (active) | AC50 [11]: 0.981 µM (active)

C[C@H]1CCCCO[C@H](CN(C)Cc2ccc3c(c2)OCO3)[C@@H](C)CN([C@@H](C)CO)C(=O)c2cc(NC(=O)Nc3ccc(C(F)(F)F)cc3)ccc2O1
AC50 [6]: 12.1 µM (active)

C(=C\c1ccccc1)/C=N/N1CCN(Cc2ccccc2)CC1
IC50 [8]: > 50 µM (not active)

COc1cc(/C=N/NC(=O)c2ccc(Cn3cc([N+](=O)[O-])cn3)o2)cc(Br)c1O
IC50 (Large T antigen): 24 µM (active)
